Assay [1] deals with Prothrombin (Homo sapiens, UniProt P00734). Kind of assay: Thrombin 1536 HTS Dose Response Confirmation. [Related pubchem assays: 1046 (Thrombin 1536 HTS; hits were confirmed in this assay)]. The class given is functional.
Assay [2] deals with T1, Streptokinase A (Streptococcus pyogenes serotype M1, UniProt P10520).
T1 sequence (P10520 whole entry): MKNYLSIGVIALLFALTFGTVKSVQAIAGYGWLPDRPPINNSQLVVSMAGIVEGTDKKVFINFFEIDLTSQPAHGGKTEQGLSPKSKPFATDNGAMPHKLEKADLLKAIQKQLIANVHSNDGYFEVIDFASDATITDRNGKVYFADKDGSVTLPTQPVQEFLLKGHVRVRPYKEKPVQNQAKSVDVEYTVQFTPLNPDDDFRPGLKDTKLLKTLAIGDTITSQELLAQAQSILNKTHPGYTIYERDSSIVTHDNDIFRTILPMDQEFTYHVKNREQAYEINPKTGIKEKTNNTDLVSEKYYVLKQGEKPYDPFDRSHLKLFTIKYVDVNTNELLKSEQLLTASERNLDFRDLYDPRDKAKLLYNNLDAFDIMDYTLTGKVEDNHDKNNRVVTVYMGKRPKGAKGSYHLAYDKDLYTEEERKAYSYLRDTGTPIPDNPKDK
The experiment in a line: Absorbance Microorganism-Based Dose Response Follow up to Identify Inhibitors of Streptokinase Expression. [Related pubchem assays: 1677 (Project Summary), 1915, 1914, 1902 (Retest at Dose), 1900 (Counter Screen), 1662 (Primary HTS)]. The format is functional, Streptococcus pyogenes M1 GAS.

The subject of assay [3] is Streptococcus. The experiment in a line: Streptococcus pyogenes growth inhibition counter-screen, dose response, counter-screen for streptokinase expression inhibitor project, luminescence, BacTiter-Glo, strain UMAA2166 (AID 2477). The format is functional, organism-based.
A short description of assay [4]: HIV-1 Env-mediated cell fusion inhibitors, dose response, CCR5-tropic Env (AID 2279). The format is functional.
The target in assay [5] is T2, Corticotropin-releasing factor receptor 2/Corticotropin-releasing factor-binding protein (Homo sapiens, UniProt P24387+Q13324).
T2 sequence (Q13324 whole entry): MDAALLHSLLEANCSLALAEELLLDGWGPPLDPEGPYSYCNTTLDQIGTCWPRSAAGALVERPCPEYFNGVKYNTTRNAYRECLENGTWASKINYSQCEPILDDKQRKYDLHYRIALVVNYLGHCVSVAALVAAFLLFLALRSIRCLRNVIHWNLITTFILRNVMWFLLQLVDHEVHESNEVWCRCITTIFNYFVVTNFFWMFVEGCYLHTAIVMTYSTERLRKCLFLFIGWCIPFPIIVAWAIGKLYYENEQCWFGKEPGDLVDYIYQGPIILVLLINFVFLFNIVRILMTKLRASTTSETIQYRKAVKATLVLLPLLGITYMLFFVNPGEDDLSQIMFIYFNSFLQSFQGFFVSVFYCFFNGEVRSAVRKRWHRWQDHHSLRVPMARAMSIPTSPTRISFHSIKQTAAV
T2 sequence (P24387 whole entry): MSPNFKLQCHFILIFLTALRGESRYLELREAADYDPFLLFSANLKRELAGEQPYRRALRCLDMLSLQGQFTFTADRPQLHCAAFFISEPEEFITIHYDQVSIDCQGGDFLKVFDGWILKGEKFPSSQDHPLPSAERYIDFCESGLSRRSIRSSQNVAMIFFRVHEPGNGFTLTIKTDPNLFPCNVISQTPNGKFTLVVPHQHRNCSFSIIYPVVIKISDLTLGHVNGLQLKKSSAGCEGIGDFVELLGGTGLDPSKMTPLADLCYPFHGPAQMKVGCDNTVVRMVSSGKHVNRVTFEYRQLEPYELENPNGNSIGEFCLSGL
Kind of assay: Dose Response confirmation of uHTS hits for small molecule antagonists of the CRF-binding protein and CRF-R2 receptor complex. The format is functional. The conditions noted are these: read-out: IC50_Mean.

Assay [6] concerns the target T3, Long-chain-fatty-acid--AMP ligase FadD28 (Mycobacterium tuberculosis, UniProt P9WQ59).
T3 sequence (P9WQ59 whole entry): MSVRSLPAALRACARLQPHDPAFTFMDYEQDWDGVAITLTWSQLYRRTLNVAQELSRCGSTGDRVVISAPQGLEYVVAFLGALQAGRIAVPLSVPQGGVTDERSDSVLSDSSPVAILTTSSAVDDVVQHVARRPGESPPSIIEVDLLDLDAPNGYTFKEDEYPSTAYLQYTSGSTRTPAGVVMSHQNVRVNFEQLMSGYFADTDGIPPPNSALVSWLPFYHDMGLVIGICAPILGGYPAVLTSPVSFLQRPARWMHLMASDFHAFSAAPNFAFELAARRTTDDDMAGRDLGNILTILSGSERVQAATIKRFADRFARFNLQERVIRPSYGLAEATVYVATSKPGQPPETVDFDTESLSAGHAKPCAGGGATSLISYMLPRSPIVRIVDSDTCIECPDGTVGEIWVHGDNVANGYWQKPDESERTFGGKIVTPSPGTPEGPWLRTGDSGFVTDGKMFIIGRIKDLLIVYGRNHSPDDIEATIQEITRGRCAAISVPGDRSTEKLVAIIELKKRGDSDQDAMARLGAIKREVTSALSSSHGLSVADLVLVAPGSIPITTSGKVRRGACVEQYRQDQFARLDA
The experiment in a line: Fluorescence polarization aasay to screen for inhibitors that compete for the binding of FadD28 to a bisubstrate Measured in Biochemical System Using Plate Reader - 2147-01_Inhibitor_Dose_CherryPick_Activity. The class given is functional, Mycobacterium tuberculosis H37Rv.

Assay [7] concerns the target FAD-linked sulfhydryl oxidase ALR (Homo sapiens, UniProt P55789). Kind of assay: inhibitors of human ALR sulfhydryl oxidase, dose response, biochemical, H2O2 detection, luminescence, cherry-pick (AID 493248).
In assay [8] the target is T2, Corticotropin-releasing factor receptor 2/Corticotropin-releasing factor-binding protein. The experiment in a line: activators of CRF receptor 2 with binding protein – uHTS hits, confirmation (AID 602473). The class given is functional. The settings on record: read-out: EC50_Mean.
Assay [9] is described as follows: CRF-BP/CRF-R2 complex antagonists, dose response, cell-based, uHTS hits, 384-well (AID 651639). The conditions noted are these: read-out: IC50_Mean. The format is functional, Homo sapiens.
Assay [10] has as its target Cytochrome P450 2C9 (Homo sapiens, UniProt P11712). The conditions noted are these: Potency.
Assay [11] is described as follows: cytotoxicity in HPDE-C7 cells, cell-based, fluorescence, HTS (AID 430). The class given is functional. The conditions noted are these: Homo sapiens.
The nature of assay [12]: cytotoxicity in KRAS-transformed pancreatic duct cells, primary screen, cell-based, fluorescence, HTS (AID 431).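 Further: cell line used: HPDE-C7K.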 The format is functional. The conditions noted are these: Homo sapiens.
Assay [13] has as its target T4, Insulin-degrading enzyme (Homo sapiens, UniProt P14735).
T4 sequence (P14735 whole entry): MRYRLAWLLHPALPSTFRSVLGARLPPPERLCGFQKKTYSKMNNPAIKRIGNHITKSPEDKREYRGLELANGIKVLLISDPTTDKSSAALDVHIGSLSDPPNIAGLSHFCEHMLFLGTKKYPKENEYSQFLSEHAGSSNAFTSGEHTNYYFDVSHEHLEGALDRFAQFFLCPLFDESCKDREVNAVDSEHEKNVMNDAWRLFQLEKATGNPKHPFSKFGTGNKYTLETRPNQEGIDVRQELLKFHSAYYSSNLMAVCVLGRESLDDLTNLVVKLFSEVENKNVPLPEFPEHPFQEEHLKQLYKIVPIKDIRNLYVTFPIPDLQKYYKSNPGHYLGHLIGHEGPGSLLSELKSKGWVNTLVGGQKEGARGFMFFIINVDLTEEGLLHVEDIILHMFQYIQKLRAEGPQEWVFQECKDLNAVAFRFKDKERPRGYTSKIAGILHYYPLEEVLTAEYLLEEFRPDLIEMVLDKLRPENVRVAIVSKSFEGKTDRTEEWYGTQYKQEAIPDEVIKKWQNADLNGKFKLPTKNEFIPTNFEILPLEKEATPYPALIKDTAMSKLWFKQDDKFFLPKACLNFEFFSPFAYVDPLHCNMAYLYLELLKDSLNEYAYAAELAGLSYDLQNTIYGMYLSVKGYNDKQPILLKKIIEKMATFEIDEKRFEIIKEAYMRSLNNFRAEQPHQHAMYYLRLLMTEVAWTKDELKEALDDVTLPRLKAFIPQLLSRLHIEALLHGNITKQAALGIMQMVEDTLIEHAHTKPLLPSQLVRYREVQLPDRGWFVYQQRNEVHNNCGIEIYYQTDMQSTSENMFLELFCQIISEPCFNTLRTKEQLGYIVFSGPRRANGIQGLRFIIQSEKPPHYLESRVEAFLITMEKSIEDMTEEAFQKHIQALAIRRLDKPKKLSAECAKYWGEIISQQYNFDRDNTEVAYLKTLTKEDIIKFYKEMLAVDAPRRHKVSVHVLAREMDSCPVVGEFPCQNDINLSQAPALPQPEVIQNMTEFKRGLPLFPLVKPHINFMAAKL
Kind of assay: Dose Response: Fluorescence polarization-based cell-based high throughput dose response assay for inhibitors of insulin-degrading enzyme (IDE). [Related pubchem assays: 434962 (Primary screen (IDE inhibitors in singlicate)), 449730 (Counterscreen (Cytotoxicity in triplicate)), 435028 (Confirmation (IDE inhibitors in triplicate)), 434984 (Summary …. The class given is functional.

Assay [14] can be described thus: Counterscreen for IDE inhibitors: Luminescence-based cell-based high throughput dose response assay to identify compounds that are cytotoxic to HEK cells. [Related pubchem assays: 434962 (Primary screen (IDE inhibitors in singlicate)), 449730 (Counterscreen (Cytotoxicity in triplicate)), 435028 (Confirmation (IDE inhibitors in triplicate)) …. The class given is functional. The conditions noted are these: HEK293.

Activity calls are given as the source filed them.

Cytochrome P450 2C9, sequence (P11712 whole entry): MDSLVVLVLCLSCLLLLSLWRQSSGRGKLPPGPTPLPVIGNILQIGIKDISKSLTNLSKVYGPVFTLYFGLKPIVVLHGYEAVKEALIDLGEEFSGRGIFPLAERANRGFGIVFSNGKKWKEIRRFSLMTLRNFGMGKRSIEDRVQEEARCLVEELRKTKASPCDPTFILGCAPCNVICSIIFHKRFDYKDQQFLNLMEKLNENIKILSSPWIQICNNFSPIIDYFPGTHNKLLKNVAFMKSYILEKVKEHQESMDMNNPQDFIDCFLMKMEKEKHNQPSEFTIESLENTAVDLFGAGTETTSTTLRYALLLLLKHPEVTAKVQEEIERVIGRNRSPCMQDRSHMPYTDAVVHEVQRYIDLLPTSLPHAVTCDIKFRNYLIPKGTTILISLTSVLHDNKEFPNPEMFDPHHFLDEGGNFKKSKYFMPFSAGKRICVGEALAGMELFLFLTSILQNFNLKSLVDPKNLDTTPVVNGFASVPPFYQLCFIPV
FAD-linked sulfhydryl oxidase ALR, sequence (P55789 whole entry): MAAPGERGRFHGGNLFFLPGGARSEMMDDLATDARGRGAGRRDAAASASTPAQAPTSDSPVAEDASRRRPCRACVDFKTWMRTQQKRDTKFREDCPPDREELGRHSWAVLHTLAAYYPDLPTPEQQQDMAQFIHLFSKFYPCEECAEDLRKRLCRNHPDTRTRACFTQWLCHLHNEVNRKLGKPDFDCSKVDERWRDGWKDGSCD

Turning to `Cc1cc(C(=O)OCC(=O)c2cccc([N+](=O)[O-])c2)c2cccc(C)c2n1`, in [1], the IC50 was > 50 µM (inconclusive).
Same read-out and setting: under `CCc1nccn1C(=O)c1cnn2c(C(F)F)cc(-c3ccccc3)nc12` stands 0.916 µM (active).
Regarding `CCCOc1ccc(-c2nc(Oc3ccc(OC)cc3)c3ccccc3n2)cc1`, the results for the EC50 in assay [2] and in assay [3] were 179 µM (active) and > 500 µM (not active), respectively.
`O=C(O)c1ccccc1NC(=O)c1ccccc1Nc1ccccc1`: the figures for the IC50 in assay [4], in assay [5] and in assay [9] were > 50 µM (active), 5.46 µM (active) and > 20 µM (inactive), respectively. Moreover, the AC50 was > 100 µM (inactive) in assay [6] and 9.47 µM (active) in assay [7]. In addition, the EC50 in [8] was > 53 µM (inactive).
As to `CC(C)C[C@@H](CC(=O)N[C@H](CC(=O)N[C@@H]1CCNC[C@H]1C(=O)N[C@H](CC(=O)N[C@@H](CCC(=O)O)CC(=O)O)Cc1c[nH]c2ccccc12)C(C)C)NC(=O)[C@@H]1CCCC[C@H]1N`, the half-maximal activity concentration (AC50) in assay [10] was 25.1 µM (inconclusive).
Take `Cc1ccc(-n2c(C)cc(C3N=C(N)Nc4nc5ccccc5n43)c2C)c(C)c1` (stereo not given): the EC50 is 11 µM (active) in assay [11] and 12.7 µM (active) in assay [12].
Regarding `COc1ccccc1N1CCN(C(=O)c2cc(N3C(=O)C4C5CCC(C5)C4C3=O)ccc2Cl)CC1` (stereo not given), the IC50 is recorded as > 55.9 µM (not active) in assay [13] and 27.8 µM (not active) in [14].

The record behind these values is ChEMBL document CHEMBL1201862, “PubChem BioAssay data set” (2004).
